Source: publication PMC9394284, “Discovery of Novel Dual Adenosine A2A and A1 Receptor Antagonists with 1H-Pyrazolo[3,4-d]pyrimidin-6-amine Core Scaffold as Anti-Parkinson’s Disease Agents” (Pharmaceuticals, 2022)
“Also recorded” adds a separate entry of the source.

Tests used:
[1] = system: MPTP-lesioned mouse model; assay: MPTP-lesioned mouse model of Parkinson's disease; assay type: in vivo, C57BL/6J mice
Description: In a subsequent study, we investigated the therapeutic efficacy of 11o in PD using an MPTP-lesioned mouse model. This MPTP-lesion mouse model is one of the most well-established PD models and causes an approximately 90% loss of striatal dopamine, as analyzed using HPLC 7 days after the administration of the last dose of MPTP [13].
Male C57BL/6J mice of 10 weeks of age were purchased from Charles River Laboratories (Charles River Laboratories, Freiburg, Germany) and maintained at QPS Austria. All procedures described were reviewed and approved by IACUC at QPS Austria. Animal studies conformed to the Austrial guidelines for the care and use of laboratory animals (Tierversuchsgesetz 2012-TVG 2012, BGB1. I Nr. 114/2012). […]
To test individual nest-building behavior, mice were housed individually in cages containing wood-chip bedding and one square of pressed cotton (‘nestlet’). […] The nestlet was introduced on the day before the evaluation of the nest status in about 2 to 3 h before the dark phase was initiated, and the nest-building behavior was evaluated on the following day of the experiment within 2~3 h after the light-phase start. […] Manipulation of the nestlet and the constitution of the built nest were assessed according to five-point scale as follows: 1. […]

[2] = system: TA98 and TA100; assay: AMES bacterial reverse-mutation test; assay type: cell-based; details: up to 1867 μg/plate; TA98 and TA100, with and without S9
Procedure: The mutagenic potential of 11o was also tested by assessing its ability to reverse mutations in a bacterial mutagenesis study.
AMES bacterial reverse-mutation test was performed at Frontage laboratories inc. (Frontage laboratories, Concord, OH, USA) according to testing facility’s standard operating procedures (SOPs) following OECD guideline 471, “Bacterial Reverse Mutation Test”, and ICH S2(R1), “Guidance on Genotoxicity Testing and Data Interpretation for Pharmaceuticals Intended for Human Use”[19]. Briefly, test system was exposed to test article via plate-incorporation methodology originally described by Ames et al. and updated by Maron and Ames. […] For mutagenicity assay, TA98 and TA100 (tester strains source: Molecular Toxicology Inc. (Boone, NC, USA). TA98 lot number 5464D, part number 71–098L; TA100 lot number 5439D, part number 71–100L) was exposed to vehicle alone and at least 8 concentrations of 11o, with duplicate plates/condition, in both the presence and absence of S9 using the plate incorporation method. […] Following incubation, plates were examined for the condition of the bacterial background lawn and precipitate and recorded. Colonies were enumerated either by visually or by an automatic colony counter (Scan 1200 Automated colony counter and scan software).

[3] = metabolic stability in cryopreserved rat hepatocytes
Procedure: Metabolic stability of 11o was determined in cryopreserved hepatocytes from mice, rats, dogs, monkeys and human according to the SOPs of Frontage Laboratories Inc. Briefly, cryopreserved hepatocytes for pre-clinical animals and for human (BioIVT, Westbury, NY, USA) were thawed in a 37 °C water bath with gentle shaking until ice had almost melted. The suspensions were immediately transferred to a centrifuge tube (50 mL) containing pre-warmed thawing media at 37 °C with gentle handshaking to prevent the cells from settling. Cell suspensions were centrifuged at 50× g and 4 °C for 5 min. The supernatant was discarded and the pellets were resuspended in prewarmed incubation media (5 mL) at 37 °C. The percentage of viable cells in the suspension was determined by Trypan blue staining method to ensure viability of ≥70 %. […] The samples were centrifuged and aliquots of the supernatant were analyzed for parent compounds by LC/MS/MS using suitable multiple reaction monitoring (MRM) transitions. […] The disappearance of 11o and midazolam was monitored by LC/MS/MS (MRM) analysis of the hepatocyte extracts at each time point. The peak area ratio of the analyte to internal standard was obtained for each sample and the rate of disappearance of 11o was assessed by comparing the peak area ratios at various time points to the peak area ratio obtained at t = 0. The t1/2 is obtained (using the linear portion of semi-log plot of the area ratio vs. time) and the CLint values determined using well-stirred model.

[4] = Sprague Dawley, rat, cryopreserved hepatocytes in suspension

Cc1cc(Cn2ncc3c(-c4cccc(C#N)c4F)nc(N)nc32)ccc1N [11o, 3-(6-Amino-1-(4-amino-3-methylbenzyl)-1H-pyrazolo[3,4-d]pyrimidin-4-yl)-2-fluorobenzonitrile]
nest-building activity ([1]; MPTP-lesioned mice, intranasal 1 and 10 mg/kg, difference not significant): partially restored the activity level to near sham level
rescue of striatal dopamine depletion caused by MPTP ([1]; once daily for 7 days, doses up to 10 mg/kg, data not shown): unable to rescue dopamine depletion
AMES mutagenicity [2]: did not cause any positive mutagenic response; also recorded: no mutagenicity up to 1867 μg/plate
CLint scaled at 1 μM [3, 4]: 69.2 mL/min/kg
half-life at 1 μM [3, 4]: 46.9 min
hepatocyte CLint at 1 μM [3, 4]: 14.8 µL/min/1e6 cells
Intrinsic Clearance ([3]; rat hepatocytes, 1 μM 11o): 0.0148 mL/min/10^6 Cells
